These results are taken from patent US11925611B2, “Use of ZT-1A and analogs thereof to prevent and/or treat neurodegenerative and neurocognitive disorders” (United States Government as Represented by the Department …, priority 2021, dated 2024).

Series [1] concerns Coil BCAS mice. Kind of series: Coil BCAS model, delayed administration (NOR, MBP immunostaining, CBF, body weight). Format: in vivo. As for the experimental part: The efficacy of administration of ZT-1a starting at 4 wks post-BCAS surgery, when matter demyelination has reached its peak, was examined next. To test the reproducibility of these findings, in this pilot study, the Coil BCAS model was used by placing two microcoils (0.18 mm diameter) in each CCAs, a well-established model with CBF reduction and accompanied by ischemic lesion to white matter tracks, cortex, and hippocampus. Either vehicle DMSO (Veh, 2 ml/kg) or ZT-1a (5 mg/kg, every 72 h, i.p) was administered at 4-8 wks post-BCAS (i.e., during 28-56 days after coil-BCAS, every 3 days) (FIG. 7A). […] Then MBP expression levels were examined in these brains by immunostaining. […] Data are mean±SEM, n=5-8, *p<0.01 vs. sham, *p<0.05 vs. Veh.

Series [2] concerns NKCC1. Kind of series: Cellular inhibition of NKCC1 phosphorylation (pThr203). Format: cell-based. As to conditions: Isotonic conditions; n = 3; — = no inhibition; read-out: NKCC1 pThr203 (μM) Iso. The text has this:
8. Cellular Activity Profile of Inhibitors with the Salicyclic Amide
A list of the compounds evaluated for their ability to inhibit phosphorylation of SPAK/NKCC1/KCC3 activity is illustrated in Table 1 below.

Series [3] relates to BCAS mice. Kind of series: Morris water maze (MWM) test in modified BCAS mice. Format: in vivo, C57BL/6J mice. The text has this:
Clinically, most patients with intracranial atherosclerotic stenosis suffer from permanent stenosis without occlusion. Therefore, to mimic clinical atherosclerotic stenosis with permanent carotid artery (CCA) hypoperfusion, a modified BCAS model was adapted by ligating the CCA guided with a 30 gauge needle (0.31 mm diameter) in the right CCA and a 33 gauge needle (0.21 mm diameter) in the left CCA with a 4-0 silk suture. […] Next, changes of total NKCC1 (tNKCC1) protein expression were surveyed in different brain regions at 2 and 4 wks post-surgery by immunofluorescence staining (IF). […] Therefore, in the rest of the study, the investigation was focused on its association to white matter GFAP^+ astrogliosis and lesion of CC and external capsul (EC) tracks. […] However, by 2 wks post-BCAS surgery, tNKCC1 immunofluorescence intensity in the CC tracks was increased by ˜3 folds (p<0.05), and further elevated to ˜6 folds by 4 wks (p<0.05, arrowhead). Data are mean±SEM, n=4, *p<0.05, **p<0.01. […] The upregulation of tNKCC1 and GFAP protein expression in the CC is correlated, with a Pearson's correlation coefficient of r=0.9 (p<0.001). […] In contrast, no elevated tNKCC1 protein was detected either in Iba1^+ microglia/macrophages or in Olig2+ oligodendrocytes (OL) at 4 wks post-BCAS surgery (FIG. 1D). Without wishing to be bound by theory, these findings indicate that upregulation of NKCC1 expression and activity in reactive astrocytes may play a critical role in white matter inflammation, OL death, and demyelination after BCAS. Next, whether administration of SPAK inhibitor ZT-1a reduces WML and improves cognitive functions was examined. Starting at 14 days after BCAS surgery in mice (male), either vehicle DMSO (Veh, 2 ml/kg) or ZT-1a (5 mg/kg, every 72 h, i.p) was administered every 3 days, until they were sacrificed at day 35 post-BCAS (FIG. 3A). […] Motor functions are similar in all groups and average swimming speeds were not different in the Sham-, Veh- and ZT-1a-treated mice. Data are mean±SEM, n=6 (Sham and ZT-1a) or 5 (Veh), *p<0.01 vs. sham, *p<0.05 vs. Veh.

Molecules are shown by their SMILES.

Turning to `Cc1cc(C(C#N)c2ccc(Cl)cc2)c(Cl)cc1NC(=O)c1cc(Cl)ccc1O` (centres unmarked) [1a (ZT-1a)], in series [1] (5 mg/kg i.p. every 72 h at 4-8 wks post-BCAS), the “memory function in novel objective recognition test (NOR)” value was “no memory function impairment”. The body weight changes result in series [1] (5 mg/kg i.p. every 72 h at 4-8 wks post-BCAS, data not shown) is given as “No body weight changes”. Also, the “MBP levels in CC and EC tracts” value in series [1] (delayed administration 4-8 wks post-BCAS, p<0.05) is listed as “significantly increased”. Besides, in series [1] (delayed treatment for four weeks, by 8 wks post-BCAS), the “cerebral blood flow (CBF)” value was “significantly improved”. Further, the IC50 in series [2] was determined as 1 µM. In series [3] (5 mg/kg i.p. every 72 h from day 14 after BCAS, 4 wks post-BCAS, vs Veh-treated BCAS mice), the “escape latency in MWM test” value is recorded as “significantly less escape latency”. Also, the “time in the target quadrant, spatial probe trial” value in series [3] (5 mg/kg i.p. every 72 h from day 14 after BCAS, mean±SEM, n=6, Veh 15.3±1.2 sec, p<0.05) turned out to be 26.3 ± 4.3 s. Further, the average swimming speeds entry in series [3] (Sham-, Veh- and ZT-1a-treated mice compared) was “not different”.
